Assay results published in PubChem BioAssay (NCI).
Several values for one entry are separate records, joined by “and”; a condition that tells them apart may be missing. Identical values can stand only once.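 48-hour exposure; five concentrations; linearly interpolated endpoints. The concentration for 50% growth inhibition is given as GI50. TGI: concentration producing complete growth inhibition.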

Experiments:
Assay in all cases: inhibition of tumour cell growth, NCI panel, 48 h
786-0 renal = test system: 786-0 renal
HOP-62 NSCLC = test system: HOP-62 NSCLC
HT29 colon = test system: HT29 colon
M14 melanoma = test system: M14 melanoma
MDA-MB-231 breast = test system: MDA-MB-231 breast
MOLT-4 leukemia = test system: MOLT-4 leukemia
NCI-H522 lung = test system: NCI-H522 lung
OVCAR-3 ovarian = test system: OVCAR-3 ovarian
SF-268 CNS = test system: SF-268 CNS
UACC-62 melanoma = test system: UACC-62 melanoma

CC(C)C1CN1CC(O)Cn1ccnc1[N+](=O)[O-] (centres undefined)
TGI (786-0 renal): > 100 µM | TGI (HOP-62 NSCLC): > 100 µM | TGI (HT29 colon): > 100 µM | TGI (M14 melanoma): > 100 µM | TGI (MDA-MB-231 breast): > 100 µM | TGI (MOLT-4 leukemia): > 100 µM | TGI (NCI-H522 lung): > 100 µM | TGI (OVCAR-3 ovarian): > 100 µM | TGI (SF-268 CNS): > 100 µM | TGI (UACC-62 melanoma): > 100 µM

CCC(=O)Sc1ccccc1C(=O)Nc1ccc(Cl)cc1
GI50 (786-0 renal): 15 µM | TGI (786-0 renal): 41.8 µM | GI50 (HOP-62 NSCLC): 12.5 µM | TGI (HOP-62 NSCLC): 34.2 µM | GI50 (HT29 colon): 7.09 µM | TGI (HT29 colon): 44.5 µM | GI50 (M14 melanoma): 6.42 µM | TGI (M14 melanoma): 43.9 µM | GI50 (MDA-MB-231 breast): 11.2 µM | TGI (MDA-MB-231 breast): 45.7 µM | GI50 (MOLT-4 leukemia): 4.67 µM | TGI (MOLT-4 leukemia): 92.6 µM | GI50 (NCI-H522 lung): 6.21 µM | TGI (NCI-H522 lung): 27.1 µM | GI50 (OVCAR-3 ovarian): 6.34 µM | TGI (OVCAR-3 ovarian): 26.1 µM | GI50 (SF-268 CNS): 9.67 µM | TGI (SF-268 CNS): 52.9 µM | GI50 (UACC-62 melanoma): 4.38 µM | TGI (UACC-62 melanoma): 24.3 µM

COc1ccc(C2C3=C(NC(=O)C2C#N)c2ccc4ccccc4c2OCC3)cc1 (centres undefined)
GI50 (786-0 renal): 30.2 µM | TGI (786-0 renal): 86.4 µM | GI50 (HOP-62 NSCLC): 28.2 µM | TGI (HOP-62 NSCLC): 86.3 µM | GI50 (HT29 colon): > 100 µM | TGI (HT29 colon): > 100 µM | GI50 (M14 melanoma): 90.2 µM | TGI (M14 melanoma): > 100 µM | GI50 (MDA-MB-231 breast): 17.9 µM | TGI (MDA-MB-231 breast): 43.2 µM | GI50 (MOLT-4 leukemia): > 100 µM | TGI (MOLT-4 leukemia): > 100 µM | GI50 (NCI-H522 lung): 74.5 µM | TGI (NCI-H522 lung): > 100 µM | GI50 (OVCAR-3 ovarian): 70.4 µM | TGI (OVCAR-3 ovarian): > 100 µM | GI50 (SF-268 CNS): 23.3 µM | TGI (SF-268 CNS): 76.2 µM | GI50 (UACC-62 melanoma): 19 µM | TGI (UACC-62 melanoma): 45.5 µM

COc1ccc(/C=C2/CN(C(=O)c3ccccc3F)C/C(=C\c3ccc(OC)cc3)C2=O)cc1
GI50 (786-0 renal): 2.04 µM | TGI (786-0 renal): 4.37 µM | GI50 (HOP-62 NSCLC): 3.77 µM | TGI (HOP-62 NSCLC): 14.6 µM | GI50 (HT29 colon): 1.96 µM | TGI (HT29 colon): 3.78 µM | GI50 (M14 melanoma): 2.73 µM | TGI (M14 melanoma): 7.51 µM | GI50 (MDA-MB-231 breast): 2.88 µM | TGI (MDA-MB-231 breast): 9.04 µM | GI50 (MOLT-4 leukemia): 3.79 µM | TGI (MOLT-4 leukemia): 49.5 µM | GI50 (NCI-H522 lung): 4.2 µM | TGI (NCI-H522 lung): 15 µM | GI50 (OVCAR-3 ovarian): 2.3 µM | TGI (OVCAR-3 ovarian): 4.95 µM | GI50 (SF-268 CNS): 4.28 µM | TGI (SF-268 CNS): 18.9 µM | GI50 (UACC-62 melanoma): 2.53 µM | TGI (UACC-62 melanoma): 11.5 µM

COc1ccc(OC)c(/C=C/[N+](=O)[O-])c1
TGI (786-0 renal): 4.09 µM and 3.21 µM | TGI (HOP-62 NSCLC): 8.27 µM and 9.56 µM | TGI (HT29 colon): 6.33 µM and 7.41 µM | TGI (M14 melanoma): 4.44 µM and 6.86 µM | TGI (MDA-MB-231 breast): 5.32 µM | GI50 (MOLT-4 leukemia): 1.1 µM and 2.52 µM | TGI (MOLT-4 leukemia): 5.31 µM and 9.59 µM | TGI (NCI-H522 lung): 2.96 µM and 4.78 µM | TGI (OVCAR-3 ovarian): 4.9 µM and 3.31 µM | TGI (SF-268 CNS): 10 µM and 12.3 µM | GI50 (UACC-62 melanoma): 1.98 µM and 4.37 µM | TGI (UACC-62 melanoma): 5.34 µM and 12.1 µM

COC1/C=C/O[C@@]2(C)Oc3c(C)c(O)c4c(O)c(cc(O)c4c3C2=O)NC(=O)/C(C)=C\C=C\[C@H](C)C(O)[C@@H](C)[C@@H](O)[C@@H](C)[C@H](OC(C)=O)[C@@H]1C (some centres undefined)
GI50 (786-0 renal): 4.29 µM | TGI (786-0 renal): 15.9 µM and 29.5 µM | GI50 (HOP-62 NSCLC): 18.8 µM | TGI (HOP-62 NSCLC): 32.8 µM and 237 µM | GI50 (HT29 colon): 11.6 µM | TGI (HT29 colon): 24.3 µM and 34.5 µM | GI50 (M14 melanoma): 13.8 µM | TGI (M14 melanoma): 27 µM and 35.7 µM | GI50 (MDA-MB-231 breast): 14.2 µM | TGI (MDA-MB-231 breast): 27.2 µM and 56.2 µM | GI50 (MOLT-4 leukemia): 7.42 µM | TGI (MOLT-4 leukemia): 36.3 µM and 62.5 µM | GI50 (NCI-H522 lung): 2.72 µM | TGI (NCI-H522 lung): 11.2 µM and 20.5 µM | GI50 (OVCAR-3 ovarian): 2.6 µM and 8.56 µM | TGI (OVCAR-3 ovarian): 15.1 µM and 22.9 µM | GI50 (SF-268 CNS): 18.3 µM | TGI (SF-268 CNS): 33.4 µM and 61.7 µM | GI50 (UACC-62 melanoma): 14.8 µM | TGI (UACC-62 melanoma): 28 µM and 42.2 µM

CCCC[C@@H]1NC(=O)[C@H](CCCCN)NC(=O)[C@H](CCCNC(=N)N)NC(=O)[C@H](CC(C)C)NC(=O)[C@@H](NC(=O)[C@H](Cc2cccc(Cl)c2)NC(=O)[C@@H]2CCCN2C(=O)[C@@H](NC(C)=O)C(C)C)CCSSC[C@@H](C(=O)N[C@@H](CCCCN)C(=O)N2CCC[C@H]2C(=O)N2CCC[C@H]2C(=O)N[C@@H](CCC(=O)O)C(N)=O)NC(=O)[C@H](Cc2ccccc2)NC(=O)[C@H](CO)NC(=O)[C@H](C)NC(=O)[C@@H]2CCCN2C1=O
GI50 (786-0 renal): > 50 µM | TGI (786-0 renal): > 50 µM | GI50 (HOP-62 NSCLC): > 50 µM | TGI (HOP-62 NSCLC): > 50 µM | GI50 (HT29 colon): > 50 µM | TGI (HT29 colon): > 50 µM | GI50 (M14 melanoma): > 50 µM | TGI (M14 melanoma): > 50 µM | GI50 (MDA-MB-231 breast): > 50 µM | TGI (MDA-MB-231 breast): > 50 µM | GI50 (MOLT-4 leukemia): > 50 µM | TGI (MOLT-4 leukemia): > 50 µM | GI50 (NCI-H522 lung): > 50 µM | TGI (NCI-H522 lung): > 50 µM | GI50 (OVCAR-3 ovarian): > 50 µM | TGI (OVCAR-3 ovarian): > 50 µM | GI50 (SF-268 CNS): > 50 µM | TGI (SF-268 CNS): > 50 µM | GI50 (UACC-62 melanoma): > 50 µM | TGI (UACC-62 melanoma): > 50 µM

COc1ccc(-c2cc3cccc(OC)c3c(=O)o2)cc1OC
GI50 (786-0 renal): 50.2 µM | TGI (786-0 renal): > 100 µM | GI50 (HOP-62 NSCLC): 62.5 µM | TGI (HOP-62 NSCLC): > 100 µM | GI50 (HT29 colon): 8.49 µM | TGI (HT29 colon): > 100 µM | GI50 (M14 melanoma): 93.9 µM | TGI (M14 melanoma): > 100 µM | GI50 (MDA-MB-231 breast): 22.8 µM | TGI (MDA-MB-231 breast): > 100 µM | GI50 (MOLT-4 leukemia): 47.9 µM | TGI (MOLT-4 leukemia): > 100 µM | GI50 (NCI-H522 lung): 48.6 µM | TGI (NCI-H522 lung): > 100 µM | GI50 (OVCAR-3 ovarian): 43.4 µM | TGI (OVCAR-3 ovarian): > 100 µM | GI50 (SF-268 CNS): 39.7 µM | TGI (SF-268 CNS): > 100 µM | GI50 (UACC-62 melanoma): 0.661 µM | TGI (UACC-62 melanoma): > 100 µM

O=C(Cn1ccnc1[N+](=O)[O-])N(CCO)CCO
TGI (786-0 renal): > 250 µM | GI50 (HOP-62 NSCLC): 22.3 µM | TGI (HOP-62 NSCLC): > 250 µM | GI50 (HT29 colon): > 1250 µM | TGI (HT29 colon): > 1250 µM | TGI (M14 melanoma): > 250 µM | TGI (MDA-MB-231 breast): > 250 µM | GI50 (MOLT-4 leukemia): > 1250 µM | TGI (MOLT-4 leukemia): > 1250 µM | GI50 (NCI-H522 lung): > 1250 µM | TGI (NCI-H522 lung): > 1250 µM | GI50 (OVCAR-3 ovarian): > 312 µM | TGI (OVCAR-3 ovarian): > 828 µM | GI50 (SF-268 CNS): > 1250 µM | TGI (SF-268 CNS): > 1250 µM | GI50 (UACC-62 melanoma): > 943 µM | TGI (UACC-62 melanoma): > 250 µM and 1240 µM

Cn1ncc2c(Nc3ccc(Br)cc3)nc(Nc3ccc(Br)cc3)nc21
GI50 (786-0 renal): 2.4 µM | TGI (786-0 renal): 5.32 µM | GI50 (HOP-62 NSCLC): 4.22 µM | TGI (HOP-62 NSCLC): 15.4 µM | GI50 (HT29 colon): 2.03 µM | TGI (HT29 colon): 4.32 µM | GI50 (M14 melanoma): 2.09 µM | TGI (M14 melanoma): 4.63 µM | GI50 (MDA-MB-231 breast): 1.8 µM | TGI (MDA-MB-231 breast): 3.68 µM | GI50 (MOLT-4 leukemia): 0.346 µM | TGI (MOLT-4 leukemia): 5.23 µM | GI50 (NCI-H522 lung): 3.44 µM | TGI (NCI-H522 lung): 15.7 µM | GI50 (OVCAR-3 ovarian): 3.95 µM | TGI (OVCAR-3 ovarian): 12.3 µM | GI50 (SF-268 CNS): 5.11 µM | TGI (SF-268 CNS): 15.8 µM | GI50 (UACC-62 melanoma): 2.32 µM | TGI (UACC-62 melanoma): 6.82 µM

CCOc1ccc(NC(=O)Nc2cc(C(C)C)ccc2C)cc1
GI50 (786-0 renal): 2.64 µM | TGI (786-0 renal): 6.72 µM | GI50 (HOP-62 NSCLC): 8.78 µM | TGI (HOP-62 NSCLC): 22.8 µM | GI50 (HT29 colon): 32.8 µM | TGI (HT29 colon): > 100 µM | GI50 (M14 melanoma): 21.9 µM | TGI (M14 melanoma): > 100 µM | GI50 (MDA-MB-231 breast): 3.79 µM | TGI (MDA-MB-231 breast): 15.8 µM | GI50 (MOLT-4 leukemia): 9.57 µM | TGI (MOLT-4 leukemia): > 100 µM | GI50 (NCI-H522 lung): 9.53 µM | TGI (NCI-H522 lung): 78.3 µM | GI50 (OVCAR-3 ovarian): 5.33 µM | TGI (OVCAR-3 ovarian): 13.6 µM | GI50 (SF-268 CNS): 4.36 µM | TGI (SF-268 CNS): 14.7 µM | GI50 (UACC-62 melanoma): 16.2 µM | TGI (UACC-62 melanoma): > 89.8 µM
